The text below walks through data of ChEMBL document CHEMBL6134824, “LPS-enriched interaction drives spectrum conversion in antimicrobial peptides: Design and optimization of AA16 derivatives for targeting gram-negative bacteria” (Eur J Med Chem, 2025).

As usually defined, the MIC is the lowest concentration found to suppress growth. Low values mean inhibition by little substance, high ones a need for much substance. By HC50 is commonly meant the concentration that lyses half of the red blood cells. Usually Kd stands for the constant that tells how readily two partners part at equilibrium.

Series [1] deals with Staphylococcus aureus. Description: Antibacterial activity against methicillin-resistant Staphylococcus aureus ATCC 43300 incubated for 16 hrs under shaking condition by standard broth microdilution method. The series is classed as functional. A general note: In broth dilution the organism is exposed to a series of concentrations in liquid medium.
Series [2] concerns Staphylococcus aureus. Description: Antibacterial activity against Staphylococcus aureus NCTC 10788 incubated for 16 hrs under shaking condition by standard broth microdilution method. Type of series: functional.
Series [3] deals with Escherichia coli. Description: Antibacterial activity against Escherichia coli NCTC 10418 incubated for 16 hrs under shaking condition by standard broth microdilution method. The series is classed as functional.
In series [4] the test system is Pseudomonas aeruginosa. Description: Antibacterial activity against Pseudomonas aeruginosa ATCC 27853 incubated for 16 hrs under shaking condition by standard broth microdilution method. The series is classed as functional.
Series [5] is described as follows: Hemolytic activity at horse Erythrocyte assessed as hemolysis. The series is classed as toxicity, cell-based, Equus caballus. The conditions noted are these: horse erythrocytes.
Series [6] can be described thus: Hemolytic activity at mouse Red blood cell assessed as hemolysis. Type of series: toxicity, cell-based. The conditions noted are these: erythrocyte.
The test system of series [7] is Cell membrane. Description: Induction of cytoplasmic membrane depolarization in […] assessed as increase in fluorescence intensity by DISC3-5 dye based fluorescence analysis. The series is classed as subcellular.
The test system of series [8] is Escherichia coli. Description: Antibacterial activity against Escherichia coli CMCC 44102 incubated for 16 hrs under shaking condition by standard broth microdilution method. The series is classed as functional.
For series [9], the system named is Escherichia coli. Description: Antibacterial activity against Escherichia coli ATCC 25922 incubated for 16 hrs under shaking condition by standard broth microdilution method. Type of series: functional.
In series [10] the test system is Escherichia coli. Description: Antibacterial activity against Escherichia coli DC 29755 incubated for 16 hrs under shaking condition by standard broth microdilution method. Type of series: functional.
For series [11], the system named is Pseudomonas aeruginosa. Description: Antibacterial activity against Pseudomonas aeruginosa TL 11001 incubated for 16 hrs under shaking condition by standard broth microdilution method. Type of series: functional.
For series [12], the system named is Pseudomonas aeruginosa. Description: Antibacterial activity against Pseudomonas aeruginosa TL 11004 incubated for 16 hrs under shaking condition by standard broth microdilution method. Type of series: functional.
The test system of series [13] is Pseudomonas aeruginosa. Description: Antibacterial activity against Pseudomonas aeruginosa TL 11005 incubated for 16 hrs under shaking condition by standard broth microdilution method. The series is classed as functional.
For series [14], the system named is Klebsiella pneumoniae. Description: Antibacterial activity against Klebsiella pneumoniae FK 16298 incubated for 16 hrs under shaking condition by standard broth microdilution method. The series is classed as functional.
Series [15] has as its system Cell membrane. Description: Induction of cytoplasmic membrane depolarization in Pseudomonas aeruginosa assessed as change in fluorescence intensity by DISC3-5 dye based fluorescence analysis. Type of series: subcellular.
For series [16], the system named is Cell membrane. Description: Induction of cytoplasmic membrane depolarization in […] assessed as change in fluorescence intensity by DISC3-5 dye based fluorescence analysis. The series is classed as subcellular.
For series [17], the system named is Cell membrane. Description: Induction of cell membrane depolarization in Pseudomonas aeruginosa assessed as fluorescence intensity by DISC3-5 dye based fluorescence analysis. Type of series: subcellular.
Series [18] deals with Lipid bilayer. Description: Disruption of membrane integrity in bacterial cell membrane mimic POPC/POPG LUVs assessed as calcein leakage measured for 30 mins by fluorescence based analysis.
Series [19] concerns Cell membrane. Description: Induction of outer membrane permeability in Pseudomonas aeruginosa assessed as fluorescence intensity by 1-N-Nphenylnaphthylamine fluorescent probe based analysis. Type of series: subcellular.
The target in series [20] is Lipopolysaccharide (LPS). Description: Binding affinity to LPS (unknown origin) assessed as dissociation constant by MST analysis.
In series [21] the test system is Lipopolysaccharide (LPS). Description: Disaggregation of FITC-labeled Escherichia coli LPS assessed as fluorescence intensity at 0.01 uM measured for 30 mins relative to control.
The test system of series [22] is Cell membrane. Description: Induction of inner membrane disruption in Pseudomonas aeruginosa assessed as fluorescence intensity at 8 times MIC by DISC3-5 dye based fluorescence analysis. The series is classed as subcellular.
Series [23] concerns Cell membrane. Description: Induction of inner membrane disruption in […] assessed as change in fluorescence intensity at 8 times MIC by DISC3-5 dye based fluorescence analysis. Type of series: subcellular.
Series [24] has as its system Cell membrane. Description: Disruption of cell membrane integrity in methicillin-resistant Staphylococcus aureus assessed as reduction in green to red fluorescence by STYO 9 and PI staining based confocal microscopy analysis. The series is classed as subcellular.
The subject of series [25] is Cell membrane. Description: Disruption of cell membrane integrity in Staphylococcus aureus assessed as reduction in green to red fluorescence by STYO 9 and PI staining based confocal microscopy analysis. The series is classed as subcellular.

The source made the active and inactive calls. No cut-off for these calls is given here.

As to Ac-AARIPSRILKGALRVL-NH2, the minimal inhibitory concentration (MIC) in [1] was determined as 256 µg/mL; in series [2], 512 µg/mL; in series [3] it was 128 µg/mL; in series [4], 64 µg/mL. Moreover, in series [5], the concentration for 50% haemolysis (HC50) is more than 512 µg/mL. Moreover, the MHC in series [6] was more than 512 µg/mL.
Ac-AAKILSKILKGALKVL-NH2: the minimum inhibitory concentration (MIC) came out at 4 µg/mL in series [1], 8 µg/mL in series [2], 8 µg/mL in series [3] and 16 µg/mL in series [4]. The HC50 in [5] came out at 442 µg/mL. Also, the MHC in series [6] was 442 µg/mL.
As to Ac-AARILSRILSGALRVL-NH2, the MIC in [1] was 4 µg/mL; in series [2] it was 4 µg/mL; in [3] it was 16 µg/mL; in series [4], 64 µg/mL. For the same substance, in series [5], the HC50 turned out to be 161 µg/mL. Besides, the MHC in series [6] worked out at 161 µg/mL. For the same substance, in series [7], the result was Active.
Turning to Ac-AARIFSRILRGALRVL-NH2, the minimum inhibitory concentration (MIC) in series [1] came to 8 µg/mL; in [2] it was 4 µg/mL; in series [3], 8 µg/mL; in series [4], 16 µg/mL. The 50% haemolytic concentration (HC50) in series [5] amounted to 179 µg/mL. Further, the MHC in series [6] stood at 179 µg/mL.
With Ac-AARIPSRILFGALRVL-NH2, the minimal inhibitory concentration (MIC) in [1] came to 128 µg/mL; in series [2], 128 µg/mL; in series [3], 64 µg/mL; in series [4] it was 256 µg/mL; in series [8] it was 128 µg/mL; in series [9], 128 µg/mL. Further, the minimal inhibitory concentration (MIC) in [10] turned out to be 128 µg/mL; in [11] it was 512 µg/mL; in series [12], 512 µg/mL; in series [13], 128 µg/mL; in series [14], 256 µg/mL. Moreover, in series [5], the HC50 was more than 512 µg/mL. For the same substance, in [6], the MHC was more than 512 µg/mL. Further, the outcome in series [15] and in series [16] was Active. In addition, the values for the Flu intensity in series [17], in [19] and in series [21] were 676, 10000 and -95, respectively. Besides, the Activity in [18] was 50.1%. In series [20], the dissociation constant Kd was found to be 39.1 µM.
Consider Ac-AARILSRILRFALRVL-NH2, for which the MIC in series [1] is 16 µg/mL; in [2] it was 32 µg/mL; in series [3], more than 512 µg/mL; in [4] it was more than 512 µg/mL. In series [5], the HC50 was determined as 34.2 µg/mL. The MHC in [6] came out at 34.197 µg/mL. For the same substance, the Flu intensity in series [22] was 2410. Also, the result in series [23], in series [24] and in series [25] was Active.
With Ac-AARILSRILFGALRVL-NH2, the minimal inhibitory concentration (MIC) is 8 µg/mL in [1], 8 µg/mL in [2], 32 µg/mL in series [3] and 32 µg/mL in series [4]. In [5], the 50% haemolytic concentration (HC50) worked out at 51.7 µg/mL. The MHC in series [6] was found to be 51.663 µg/mL.
